# Measurements from patent US20250034170A1, “SMALL MOLECULE MODULATORS OF GLUCOCEREBROSIDASE ACTIVITY AND USES THEREOF” (Vanqua Bio, Inc., priority 2021, published 2025).
# Target: T1, GCase (Homo sapiens, UniProt P04062)
# T1 construct: endogenous in cells; host or cells: HeLa cells
# T1 sequence (P04062 40-536): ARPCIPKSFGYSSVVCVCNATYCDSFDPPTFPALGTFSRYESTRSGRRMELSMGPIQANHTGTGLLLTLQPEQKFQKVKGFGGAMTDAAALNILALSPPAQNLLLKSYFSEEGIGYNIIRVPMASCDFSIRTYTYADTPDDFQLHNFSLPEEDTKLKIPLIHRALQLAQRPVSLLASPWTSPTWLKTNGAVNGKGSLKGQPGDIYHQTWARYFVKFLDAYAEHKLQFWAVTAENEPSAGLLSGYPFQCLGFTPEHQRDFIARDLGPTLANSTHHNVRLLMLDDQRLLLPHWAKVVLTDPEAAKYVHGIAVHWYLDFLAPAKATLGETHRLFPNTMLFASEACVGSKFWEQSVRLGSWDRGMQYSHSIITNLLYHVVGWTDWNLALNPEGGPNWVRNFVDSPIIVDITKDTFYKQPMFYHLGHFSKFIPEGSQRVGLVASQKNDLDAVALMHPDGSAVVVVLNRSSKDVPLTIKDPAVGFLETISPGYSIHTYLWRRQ
# Experiment: activation of GCase in a live cell PFB assay in HELA cells
# Assay type: cell-based
# Details: activation of GCase, EC50 ranges
# Protocol: Exemplary compounds were evaluated for activation of GCase in a live cell PFB assay in HELA cells (essentially as described in Ysselstein et al., “LRRK2 kinase activity regulates lysosomal glucocerebrosidase in neurons derived from Parkinson's disease patients” Nature Communications (2019) 10:5570). […] EC50 ranges: A: <10 μM; B: >10-50 μM; C: >50-100 μM; D: >100 μM.
row,EC50 [µM],Compound
1,10 to 50,"FC(F)Cn1ncc2ncc(N3CCC4(CCN(c5cc(C(F)(F)F)ccn5)CC4)C3)nc21 [Compound 16, 2-[1-(2,2-difluoroethyl)-1H-pyrazolo[3,4-b]pyrazin-6-yl]-8-[4-(trifluoromethyl)pyridin-2-yl]-2,8-diazaspiro[4.5]decane]"
2,10 to 50,"FC(F)Cn1ncc2ncc(N3CCCC4(C3)CN(c3cnccc3C(F)(F)F)C4)nc21 [Compound 17, 6-[1-(2,2-difluoroethyl)-1H-pyrazolo[3,4-b]pyrazin-6-yl]-2-[4-(trifluoromethyl)pyridin-3-yl]-2,6-diazaspiro[3.5]nonane]"
3,10 to 50,"FC(F)Cn1ncc2ncc(N3CCCC4(C3)CN(c3ncccc3C(F)(F)F)C4)nc21 [Compound 18, 6-[1-(2,2-difluoroethyl)-1H-pyrazolo[3,4-b]pyrazin-6-yl]-2-[3-(trifluoromethyl)pyridine-2-yl]-2,6-diazaspiro[3.5]nonane]"
4,10 to 50,"FC(F)Cn1ncc2ncc(N3CCCC4(CN(c5ccccc5)C4)C3)nc21 [Compound 19, 6-[1-(2,2-difluoroethyl)-1H-pyrazolo[3,4-b]pyrazin-6-yl]-2-phenyl-2,6-diazaspiro[3.5]nonane]"
5,10 to 50,"FC(F)Cn1ncc2ncc(N3CC4(CCCN(c5ccc(C(F)(F)F)nc5)C4)C3)nc21 [Compound 20, 2-[1-(2,2-difluoroethyl)-1H-pyrazolo[3,4-b]pyrazin-6-yl]-6-[6-(trifluoromethyl)pyridin-3-yl]-2,6-diazaspiro[3.5]nonane]"
6,10 to 50,"FC(F)Cn1ncc2ncc(N3CC4(CCCN(c5cc(C(F)(F)F)ccn5)C4)C3)nc21 [Compound 21, 2-[1-(2,2-difluoroethyl)-1H-pyrazolo[3,4-b]pyrazin-6-yl]-6-[4-(trifluoromethyl)pyridin-2-yl]-2,6-diazaspiro[3.5]nonane]"
7,10 to 50,"FC(F)Cn1ncc2ncc(N3CCCC4(CC(Oc5ccc(C(F)(F)F)nc5)C4)C3)nc21 (stereo not drawn) [Compound 22, 6-[1-(2,2-difluoroethyl)-1H-pyrazolo[3,4-b]pyrazin-6-yl]-2-{[6-(trifluoromethyl)pyridin-3-yl]oxy}-6-azaspiro[3.5]nonane]"
8,10 to 50,"FC(F)Cn1ncc2ncc(N3CCCC4(CN(c5cccc(C(F)(F)F)n5)C4)C3)nc21 [Compound 23, 6-[1-(2,2-difluoroethyl)-1H-pyrazolo[3,4-b]pyrazin-6-yl]-2-[6-(trifluoromethyl)pyridin-2-yl]-2,6-diazaspiro[3.5]nonane]"
9,10 to 50,"Fc1ccc(F)c(OC2CC3(CCCN(c4cnc5cnn(CC(F)F)c5n4)C3)C2)c1 (stereo not drawn) [Compound 24, 6-[1-(2,2-difluoroethyl)-1H-pyrazolo[3,4-b]pyrazin-6-yl]-2-(2,5-difluorophenoxy)-6-azaspiro[3.5]nonane]"
10,10 to 50,"FC(F)Cn1ncc2ncc(N3CC4(CCCN(c5cccc(C(F)(F)F)n5)C4)C3)nc21 [Compound 25, 2-[1-(2,2-difluoroethyl)-1H-pyrazolo[3,4-b]pyrazin-6-yl]-6-[6-(trifluoromethyl)pyridin-2-yl]-2,6-diazaspiro[3.5]nonane]"
11,10 to 50,"FC(F)Cn1ncc2ncc(N3CCCC4(C3)CN(c3cccnc3C(F)(F)F)C4)nc21 [Compound 26, 6-[1-(2,2-difluoroethyl)-1H-pyrazolo[3,4-b]pyrazin-6-yl]-2-[2-(trifluoromethyl)pyridin-3-yl]-2,6-diazaspiro[3.5]nonane]"
12,10 to 50,"FC(F)Cn1ncc2ncc(N3CCCC4(CC(Oc5cccc(C(F)(F)F)n5)C4)C3)nc21 (stereo not drawn) [Compound 27, 6-[1-(2,2-difluoroethyl)-1H-pyrazolo[3,4-b]pyrazin-6-yl]-2-{[6-(trifluoromethyl)pyridin-2-yl]oxy}-6-azaspiro[3.5]nonane]"

# More lines, now with the values behind:
row,Compound,EC50 [µM]
1,Cn1c(=O)n(CC(F)F)c2nc(N3CCC4(CN(c5ccnc(C(F)(F)F)c5)C4)C3)ncc21 [Cmpd 1142],< 10
2,Cc1cc(N2CC3(CCN(c4cnc5c(C)nn(C6COC6)c5n4)C3)C2)nc(C(F)(F)F)n1 [Cmpd 1143],< 10
3,Cc1nc(N2CC3(CCN(c4cnc5cnn([C@@H]6CCOC6)c5n4)C3)C2)cc(C(F)(F)F)n1 [Cmpd 1144],< 10
4,Cc1nc(N2CC3(CCN(c4cnc5cnn([C@H]6CCOC6)c5n4)C3)C2)cc(C(F)(F)F)n1 [Cmpd 1145],10 to 50
5,Cc1cc(N2CC3(CCN(c4cnc5cnn([C@H]6CCOC6)c5n4)C3)C2)nc(C(F)(F)F)n1 [Cmpd 1146],10 to 50
6,Cc1cc(N2CC3(CCN(c4cnc5cnn([C@@H]6CCOC6)c5n4)C3)C2)nc(C(F)(F)F)n1 [Cmpd 1147],< 10
7,"FC(F)Cn1ncc2ncc(N3CCC4(CC3)CN(c3cc(C(F)(F)F)ccn3)C4)nc21 [Compound 1, 7-[1-(2,2-difluoroethyl)-1H-pyrazolo[3,4-b]pyrazin-6-yl]-2-[4-(trifluoromethyl)pyridin-2-yl]-2,7-diazaspiro[3.5]nonane]",< 10
8,"FC(F)(F)c1ccncc1OC1CC2(CCCN(c3cncc(-c4nncs4)n3)C2)C1 (stereo not drawn) [Compound 2, 6-[6-(1,3,4-thiadiazol-2-yl)pyrazin-2-yl]-2-{[4-(trifluoromethyl)pyridin-3-yl]oxy}-6-azaspiro[3.5]nonane]",< 10
9,"FC(F)Cn1ncc2ncc(N3CC4(CCN(c5cc(C(F)(F)F)ccn5)CC4)C3)nc21 [Compound 3, 2-[1-(2,2-difluoroethyl)-1H-pyrazolo[3,4-b]pyrazin-6-yl]-7-[4-(trifluoromethyl)pyridin-2-yl]-2,7-diazaspiro[3.5]nonane]",< 10
10,"FC(F)Cn1ncc2ncc(N3CCCC4(CC(Oc5cccnc5C(F)(F)F)C4)C3)nc21 (stereo not drawn) [Compound 4, 6-[1-(2,2-Difluoroethyl)-1H-pyrazolo[3,4-b]pyrazin-6-yl]-2-{[2-(trifluoromethyl)pyridin-3-yl]oxy}-6-azaspiro[3.5]nonane]",< 10
11,"FC(F)Cn1ncc2ncc(N3CCCC4(CCN(c5cccnc5C(F)(F)F)C4)C3)nc21 (stereo not drawn) [Compound 5, 7-[1-(2,2-difluoroethyl)-1H-pyrazolo[3,4-b]pyrazin-6-yl]-2-[2-(trifluoromethyl)pyridin-3-yl]-2,7-diazaspiro[4.5]decane]",< 10
12,"FC(F)Cn1ncc2ncc(N3CCC4(CCN(c5cc(C(F)(F)F)ccn5)C4)CC3)nc21 [Compound 6, 8-[1-(2,2-difluoroethyl)-1H-pyrazolo[3,4-b]pyrazin-6-yl]-2-[4-(trifluoromethyl)pyridin-2-yl]-2,8-diazaspiro[4.5]decane]",< 10
13,"FC(F)Cn1ncc2ncc(N3CCC4(CCCN(c5cccnc5C(F)(F)F)C4)C3)nc21 (stereo not drawn) [Compound 7, 2-[1-(2,2-difluoroethyl)-1H-pyrazolo[3,4-b]pyrazin-6-yl]-7-[2-(trifluoromethyl)pyridin-3-yl]-2,7-diazaspiro[4.5]decane]",< 10
14,"FC(F)Cn1ncc2ncc(N3CC4(CCCN(c5ccnc(C(F)(F)F)c5)C4)C3)nc21 [Compound 8, 2-[1-(2,2-difluoroethyl)-1H-pyrazolo[3,4-b]pyrazin-6-yl]-6-[2-(trifluoromethyl)pyridin-4-yl]-2,6-diazaspiro[3.5]nonane]",< 10
15,"FC(F)Cn1ncc2ncc(N3CC4(CCCN(c5cccnc5C(F)(F)F)C4)C3)nc21 [Compound 9, 2-[1-(2,2-difluoroethyl)-1H-pyrazolo[3,4-b]pyrazin-6-yl]-6-[2-(trifluoromethyl)pyridin-3-yl]-2,6-diazaspiro[3.5]nonane]",< 10
16,"FC(F)Cn1ncc2ncc(N3CCCC4(CC(Oc5cnccc5C(F)(F)F)C4)C3)nc21 (stereo not drawn) [Compound 10, 6-[1-(2,2-difluoroethyl)-1H-pyrazolo[3,4-b]pyrazin-6-yl]-2-{[4-(trifluoromethyl)pyridin-3-yl]oxy}-6-azaspiro[3.5]nonane]",< 10
17,"FC(F)(F)Cn1ncc2ncc(N3CCCC4(CC(Oc5cnccc5C(F)(F)F)C4)C3)nc21 (stereo not drawn) [Compound 11, 6-[1-(2,2,2-trifluoroethyl)-1H-pyrazolo[3,4-b]pyrazin-6-yl]-2-{[4-(trifluoromethyl)pyridin-3-yl]oxy}-6-azaspiro[3.5]nonane]",< 10
18,"FC(F)Cn1ncc2ncc(N3CCCC4(CN(c5ccnc(C(F)(F)F)c5)C4)C3)nc21 [Compound 12, 6-[1-(2,2-difluoroethyl)-1H-pyrazolo[3,4-b]pyrazin-6-yl]-2-[2-(trifluoromethyl)pyridin-4-yl]-2,6-diazaspiro[3.5]nonane]",10 to 50
19,"FC(F)Cn1ncc2ncc(N3CCCC4(CC(Oc5ccnc(C(F)(F)F)c5)C4)C3)nc21 (stereo not drawn) [Compound 13, 6-[1-(2,2-difluoroethyl)-1H-pyrazolo[3,4-b]pyrazin-6-yl]-2-{[2-(trifluoromethyl)pyridin-4-yl]oxy}-6-azaspiro[3.5]nonane]",10 to 50
20,"FC(F)Cn1ncc2ncc(N3CC4(CCCN(c5ccc(C(F)(F)F)cn5)C4)C3)nc21 [Compound 14, 2-[1-(2,2-difluoroethyl)-1H-pyrazolo[3,4-b]pyrazin-6-yl]-6-[5-(trifluoromethyl)pyridin-2-yl]-2,6-diazaspiro[3.5]nonane]",10 to 50
21,"FC(F)Cn1ncc2ncc(N3CCCC4(CN(c5cncc(C(F)(F)F)c5)C4)C3)nc21 [Compound 15, 6-[1-(2,2-difluoroethyl)-1H-pyrazolo[3,4-b]pyrazin-6-yl]-2-[5-(trifluoromethyl)pyridin-3-yl]-2,6-diazaspiro[3.5]nonane]",10 to 50
